Measured values published in patent US20260184708A1, “PYRIDAZINONES AND METHODS OF USE THEREOF” (GFB (ABC), LLC, priority 2017, published 2026).

The compounds below were run against T1, TRPC5 (Homo sapiens, UniProt Q9UL62) (assay: TRPC5 fluorescence assay, membrane potential dye, flexstation (FLEX)). Settings: Table 6; HEK293 cells overexpressing TRPC5.
T1 construct: expressed in transfected cells; host or cells: HEK 293
T1 sequence (Q9UL62 1-973): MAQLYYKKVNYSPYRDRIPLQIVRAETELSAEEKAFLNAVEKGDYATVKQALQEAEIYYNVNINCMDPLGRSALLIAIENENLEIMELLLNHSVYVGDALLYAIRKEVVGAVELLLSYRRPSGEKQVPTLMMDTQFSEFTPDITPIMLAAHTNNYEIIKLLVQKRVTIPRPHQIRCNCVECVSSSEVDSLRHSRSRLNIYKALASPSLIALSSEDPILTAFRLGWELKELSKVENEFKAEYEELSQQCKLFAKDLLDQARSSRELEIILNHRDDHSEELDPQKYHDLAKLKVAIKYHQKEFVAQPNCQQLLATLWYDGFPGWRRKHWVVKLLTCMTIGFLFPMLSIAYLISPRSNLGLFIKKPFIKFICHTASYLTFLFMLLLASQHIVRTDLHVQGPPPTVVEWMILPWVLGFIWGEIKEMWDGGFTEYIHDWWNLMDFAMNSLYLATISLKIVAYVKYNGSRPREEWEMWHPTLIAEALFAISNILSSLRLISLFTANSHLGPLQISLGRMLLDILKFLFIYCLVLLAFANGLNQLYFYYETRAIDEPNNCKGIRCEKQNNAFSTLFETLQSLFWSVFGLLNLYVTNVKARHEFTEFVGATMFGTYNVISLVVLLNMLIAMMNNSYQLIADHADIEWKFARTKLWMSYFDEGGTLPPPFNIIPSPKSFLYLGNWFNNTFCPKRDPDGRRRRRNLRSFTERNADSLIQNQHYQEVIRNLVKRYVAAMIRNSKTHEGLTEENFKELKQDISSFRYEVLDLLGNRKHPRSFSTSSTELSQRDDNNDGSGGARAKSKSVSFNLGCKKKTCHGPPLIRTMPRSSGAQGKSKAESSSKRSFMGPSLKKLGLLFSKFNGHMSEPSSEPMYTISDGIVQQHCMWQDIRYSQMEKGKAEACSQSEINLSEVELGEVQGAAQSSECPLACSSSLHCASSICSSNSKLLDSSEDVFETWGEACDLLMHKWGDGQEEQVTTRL
Assay type: cell-based
Procedure: HEK 293 cells expressing human TRPC5 cells were trypsinised, counted and seeded in black, clear-bottomed 96-well plates at a density of 50,000 cells per well and incubated overnight. Next day, the cells were loaded with membrane potential dye. Dye solution was made up according to the manufacturer's instructions in HEPES buffered Hank's balanced salt solution (HBSS). Dye solution (10 μL) was added to the wells and incubated at 37° C. for 1 hour. The test compounds and standard inhibitors were added to the wells and incubated at room temperature for 10 minutes. The plates were then placed in the flexstation and fluorescence monitored every 1.52 seconds. After 20 seconds, 10 μL of the appropriate standard agonist was added and the fluorescence monitored for 2 minutes at ex/emm: 530 nm/565 nm.

Structure (SMILES)	IC50 [nM]
O=c1[nH]ncc(N2CCc3c(ncn3Cc3ccccc3C(F)(F)F)C2)c1C1CC1	5000 to 10000
O=c1[nH]ncc(N2CCc3c(ncn3Cc3ccncc3C(F)(F)F)C2)c1Cl	0.01 to 1000
O=c1[nH]ncc(N2CCc3c(ncn3Cc3ccc(F)cc3C(F)(F)F)C2)c1Cl [drawing 844]	0.01 to 1000
O=c1[nH]ncc(N2CCc3c(nnn3C3CCCCC3)C2)c1Cl	10000 to 500000
O=c1[nH]ncc(N2CCc3c(ncn3Cc3ccc(C(F)(F)F)nc3)C2)c1Cl	10000 to 500000
N#Cc1c(N2CCc3c(nnn3Cc3ccc(F)cc3C(F)(F)F)C2)cn[nH]c1=O	10000 to 500000
Cc1ccccc1-n1ncc2c1CCN(c1cn[nH]c(=O)c1Cl)C2	0.01 to 1000
O=c1[nH]ncc(N2CCc3c(ncn3Cc3ccccc3C(F)(F)F)C2)c1Cl [drawing 850]	0.01 to 1000
O=c1[nH]ncc(N2CCc3c(ncn3Cc3cccnc3OC(F)(F)F)C2)c1Cl	0.01 to 1000
CCc1ncccc1Cn1nnc2c1CCN(c1cn[nH]c(=O)c1Cl)C2	0.01 to 1000
O=c1[nH]ncc(N2CCc3c(nnn3Cc3ccccc3C(F)(F)F)C2)c1Cl [drawing 859]	0.01 to 1000
O=c1[nH]ncc(N2CCc3c(ncn3-c3cccc(C(F)(F)F)c3)C2)c1Cl	0.01 to 1000
O=c1[nH]ncc(N2CCc3c(ncn3Cc3cnccc3C(F)(F)F)C2)c1Cl	0.01 to 1000
O=c1[nH]ncc(N2CCc3c(ncn3Cc3ccc(F)cc3C(F)F)C2)c1Cl [drawing 892]	0.01 to 1000
Cc1nc2c(n1Cc1ccccc1C(F)(F)F)CCN(c1cn[nH]c(=O)c1Cl)C2	0.01 to 1000
Cc1ccccc1Cn1cnc2c1CCN(c1cn[nH]c(=O)c1Cl)C2 [drawing 840]	0.01 to 1000
CC[C@@H](c1cncc(F)c1)n1cnc2c1CCN(c1cn[nH]c(=O)c1Cl)C2	0.01 to 1000
O=c1[nH]ncc(N2CCc3c(ncn3Cc3ncccc3C(F)(F)F)C2)c1Cl	0.01 to 1000
N#Cc1c(N2CCc3c(nnn3Cc3ccccc3C(F)F)C2)cn[nH]c1=O	10000 to 500000
O=c1[nH]ncc(N2CCc3c(ncn3C3CCCCC3)C2)c1Cl	10000 to 500000
N#Cc1ccccc1-n1cnc2c1CN(c1cn[nH]c(=O)c1C#N)CC2 [drawing 841]	0.01 to 1000
Cc1ccccc1-n1cnc2c1CCN(c1cn[nH]c(=O)c1Cl)C2	10000 to 500000
O=c1[nH]ncc(N2CCc3c(cnn3Cc3ccccc3C(F)(F)F)C2)c1Cl	0.01 to 1000
O=c1[nH]ncc(N2CCc3c(cnn3-c3ccccc3C(F)(F)F)C2)c1Cl	1000 to 5000
O=c1[nH]ncc(N2CCc3ncn(-c4ccccc4C(F)(F)F)c3C2)c1Cl [drawing 847]	10000 to 500000

Structure (SMILES)	IC50 [nM]
N#Cc1ccccc1-n1cnc2c1CN(c1cn[nH]c(=O)c1C#N)CC2 [drawing 898]	1000 to 5000
O=c1[nH]ncc(N2CCc3c(nnn3Cc3ccccc3C(F)(F)F)C2)c1Br	0.01 to 1000
N#Cc1c(N2CCc3ncn(Cc4cncc(F)c4)c3C2)cn[nH]c1=O	1000 to 5000
N#Cc1c(N2CCc3c(ncn3Cc3ccccc3C(F)(F)F)C2)cn[nH]c1=O [drawing 873]	0.01 to 1000
O=c1[nH]ncc(N2CCc3c(nnn3Cc3ccccc3OC(F)F)C2)c1Cl	0.01 to 1000
O=c1[nH]ncc(N2CCc3c(nnn3Cc3ccc(F)cc3C(F)(F)F)C2)c1Cl	0.01 to 1000
O=c1[nH]ncc(N2CCc3c(ncn3Cc3ccccc3)C2)c1Cl [drawing 880]	0.01 to 1000
O=c1[nH]ncc(N2CCc3ncn(Cc4ccc(C(F)(F)F)cc4)c3C2)c1Cl	1000 to 5000
O=c1[nH]ncc(N2CCc3c(ncn3Cc3ccccc3C(F)(F)F)C2)c1Br [drawing 862]	0.01 to 1000
CCc1ncccc1Cn1cnc2c1CCN(c1cn[nH]c(=O)c1Cl)C2	0.01 to 1000
O=c1[nH]ncc(N2CCc3nn(-c4ccccc4C(F)(F)F)cc3C2)c1Cl	0.01 to 1000
O=c1[nH]ncc(N2CCc3c(ncn3Cc3ccccc3C(F)(F)F)C2)c1Br [drawing 838]	0.01 to 1000
CCc1ncccc1Cn1nnc2c1CCN(c1cn[nH]c(=O)c1C#N)C2 [drawing 895]	10000 to 500000
C[C@H](c1ccccc1)n1cnc2c1CCN(c1cn[nH]c(=O)c1Cl)C2 [drawing 842]	0.01 to 1000
O=c1[nH]ncc(N2CCc3c(ncn3Cc3ccc(C(F)(F)F)cc3)C2)c1C1CC1	10000 to 500000
O=c1[nH]ncc(N2CCc3c(nnn3Cc3ccccc3C(F)F)C2)c1Cl	0.01 to 1000
Cc1nc2c(n1Cc1ccccc1C(F)(F)F)CCN(c1c(Cl)cn[nH]c1=O)C2	10000 to 500000
O=c1[nH]ncc(N2CCc3c(ncn3Cc3cccnc3C(F)(F)F)C2)c1Cl	1000 to 5000
N#Cc1c(N2CCc3c(ncn3Cc3ccccc3C(F)F)C2)cn[nH]c1=O	0.01 to 1000
O=c1[nH]ncc(N2CCc3c(nnn3Cc3cccnc3CC(F)(F)F)C2)c1Cl	0.01 to 1000
O=c1[nH]ncc(N2CCc3c(ncn3Cc3ccc(F)nc3C(F)(F)F)C2)c1Cl	1000 to 5000
O=c1[nH]ncc(N2CCc3c(ncn3-c3ccccc3C(F)(F)F)C2)c1Cl [drawing 871]	0.01 to 1000
O=c1[nH]ncc(N2CCc3c(cnn3-c3ccccc3OC(F)(F)F)C2)c1Cl	0.01 to 1000
Cc1ncccc1Cn1cnc2c1CN(c1cn[nH]c(=O)c1Cl)CC2	1000 to 5000
O=c1[nH]ncc(N2CCc3ncn(Cc4cnccc4C(F)(F)F)c3C2)c1Cl	10000 to 500000

These compounds were tested against T1, TRPC5 (assay: TRPC5 automated patch clamp assay (Qpatch), current block after rosiglitazone stimulation). Settings: Table 6; HEK293 cells overexpressing TRPC5; read-out: TRPC5-QPatch IC50.
Assay type: cell-based
Procedure, shortened: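 HEK 293 cells expressing human TRPC5, whole-cell QPatch recording; 1 μM buffered free internal Ca2+, external pH 7.4. Ramps −100 to +100 mV over 300 ms every 10 s from −60 mV holding; channel activated by Rosiglitazone (30 uM) after ≥60 s control. IC50 from Hill fit.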

Structure (SMILES)	IC50 [nM]
O=c1[nH]ncc(N2CCc3c(ncn3Cc3ccccc3C(F)(F)F)C2)c1C1CC1	5000 to 10000
O=c1[nH]ncc(N2CCc3c(ncn3Cc3ccncc3C(F)(F)F)C2)c1Cl	1000 to 5000
O=c1[nH]ncc(N2CCc3c(ncn3Cc3ccc(F)cc3C(F)(F)F)C2)c1Cl [drawing 844]	0.01 to 1000
O=c1[nH]ncc(N2CCc3c(nnn3C3CCCCC3)C2)c1Cl	5000 to 10000
O=c1[nH]ncc(N2CCc3c(ncn3Cc3ccc(C(F)(F)F)nc3)C2)c1Cl	10000 to 500000
N#Cc1c(N2CCc3c(nnn3Cc3ccc(F)cc3C(F)(F)F)C2)cn[nH]c1=O	1000 to 5000
Cc1ccccc1-n1ncc2c1CCN(c1cn[nH]c(=O)c1Cl)C2	0.01 to 1000
O=c1[nH]ncc(N2CCc3c(ncn3Cc3ccccc3C(F)(F)F)C2)c1Cl [drawing 850]	0.01 to 1000
O=c1[nH]ncc(N2CCc3c(ncn3Cc3cccnc3OC(F)(F)F)C2)c1Cl	0.01 to 1000
CCc1ncccc1Cn1nnc2c1CCN(c1cn[nH]c(=O)c1Cl)C2	1000 to 5000
O=c1[nH]ncc(N2CCc3c(nnn3Cc3ccccc3C(F)(F)F)C2)c1Cl [drawing 859]	0.01 to 1000
O=c1[nH]ncc(N2CCc3c(ncn3-c3cccc(C(F)(F)F)c3)C2)c1Cl	1000 to 5000
O=c1[nH]ncc(N2CCc3c(ncn3Cc3cnccc3C(F)(F)F)C2)c1Cl	1000 to 5000
O=c1[nH]ncc(N2CCc3c(ncn3Cc3ccc(F)cc3C(F)F)C2)c1Cl [drawing 892]	0.01 to 1000
Cc1nc2c(n1Cc1ccccc1C(F)(F)F)CCN(c1cn[nH]c(=O)c1Cl)C2	0.01 to 1000
Cc1ccccc1Cn1cnc2c1CCN(c1cn[nH]c(=O)c1Cl)C2 [drawing 840]	0.01 to 1000
CC[C@@H](c1cncc(F)c1)n1cnc2c1CCN(c1cn[nH]c(=O)c1Cl)C2	5000 to 10000
O=c1[nH]ncc(N2CCc3c(ncn3Cc3ncccc3C(F)(F)F)C2)c1Cl	1000 to 5000
N#Cc1c(N2CCc3c(nnn3Cc3ccccc3C(F)F)C2)cn[nH]c1=O	1000 to 5000
O=c1[nH]ncc(N2CCc3c(ncn3C3CCCCC3)C2)c1Cl	5000 to 10000
N#Cc1ccccc1-n1cnc2c1CN(c1cn[nH]c(=O)c1C#N)CC2 [drawing 841]	1000 to 5000

Structure (SMILES)	IC50 [nM]
Cc1ccccc1-n1cnc2c1CCN(c1cn[nH]c(=O)c1Cl)C2	1000 to 5000
O=c1[nH]ncc(N2CCc3c(cnn3Cc3ccccc3C(F)(F)F)C2)c1Cl	0.01 to 1000
O=c1[nH]ncc(N2CCc3ncn(-c4ccccc4C(F)(F)F)c3C2)c1Cl [drawing 847]	5000 to 10000
O=c1[nH]ncc(N2CCc3c(nnn3Cc3ccccc3C(F)(F)F)C2)c1Br	1000 to 5000
N#Cc1c(N2CCc3c(ncn3Cc3ccccc3C(F)(F)F)C2)cn[nH]c1=O [drawing 873]	0.01 to 1000
O=c1[nH]ncc(N2CCc3c(nnn3Cc3ccc(F)cc3C(F)(F)F)C2)c1Cl	0.01 to 1000
O=c1[nH]ncc(N2CCc3c(ncn3Cc3ccccc3)C2)c1Cl [drawing 880]	1000 to 5000
O=c1[nH]ncc(N2CCc3ncn(Cc4ccc(C(F)(F)F)cc4)c3C2)c1Cl	10000 to 500000
O=c1[nH]ncc(N2CCc3c(ncn3Cc3ccccc3C(F)(F)F)C2)c1Br [drawing 862]	0.01 to 1000
CCc1ncccc1Cn1cnc2c1CCN(c1cn[nH]c(=O)c1Cl)C2	0.01 to 1000
O=c1[nH]ncc(N2CCc3nn(-c4ccccc4C(F)(F)F)cc3C2)c1Cl	10000 to 500000
O=c1[nH]ncc(N2CCc3c(ncn3Cc3ccccc3C(F)(F)F)C2)c1Br [drawing 838]	1000 to 5000
CCc1ncccc1Cn1nnc2c1CCN(c1cn[nH]c(=O)c1C#N)C2 [drawing 895]	5000 to 10000
C[C@H](c1ccccc1)n1cnc2c1CCN(c1cn[nH]c(=O)c1Cl)C2 [drawing 842]	1000 to 5000
O=c1[nH]ncc(N2CCc3c(ncn3Cc3ccc(C(F)(F)F)cc3)C2)c1C1CC1	10000 to 500000
O=c1[nH]ncc(N2CCc3c(nnn3Cc3ccccc3C(F)F)C2)c1Cl	0.01 to 1000
O=c1[nH]ncc(N2CCc3c(ncn3Cc3cccnc3C(F)(F)F)C2)c1Cl	1000 to 5000
N#Cc1c(N2CCc3c(ncn3Cc3ccccc3C(F)F)C2)cn[nH]c1=O	1000 to 5000
O=c1[nH]ncc(N2CCc3c(ncn3Cc3ccc(F)nc3C(F)(F)F)C2)c1Cl	0.01 to 1000
O=c1[nH]ncc(N2CCc3c(ncn3-c3ccccc3C(F)(F)F)C2)c1Cl [drawing 871]	0.01 to 1000
O=c1[nH]ncc(N2CCc3c(cnn3-c3ccccc3OC(F)(F)F)C2)c1Cl	1000 to 5000
